Reference: US9115122B2, “Non-ATP dependent inhibitors of extracellular signal-regulated kinase (ERK)” (UNIVERSITY OF MARYLAND, BALTIMORE, priority 2012, dated 2015)

Tests used:
Assay in all cases: Cell proliferation WST-1 assay, single dose (Example 4)
Format in all cases: cell-based
Settings in all cases: 100 μM, 48 hours
RPMI-7951 melanoma cells = system: RPMI-7951 melanoma cells
Procedure: (§1) In addition, compounds were tested in RPMI-7951 cells, which also contain mutated BRaf and are resistant to BRaf inhibitors due to the overexpression of MAP3K8 (the gene encoding COT/Tp12) that provides an alternative mechanism to indirectly or directly activate ERK proteins. […] For comparison, HeLa cervical carcinoma and Jurkat T-cell leukemia cells, which are p53 defective cancer cell lines but contain no known activating mutations in the ERK pathway, were studied. […] Cell proliferation was evaluated by water soluble tetrazolium-1 (WST-1) assay as previously described. Briefly, cells (˜5000/well) were seeded in 96 well plates, allowed to recover for 16-20 hours, and then treated with the indicated test compound for 48 hours. After incubation, WST-1 reagent was added and absorbance was read at 450 nm with background subtraction taken at 650 nm. Values were normalized to the control (DMSO only treated) cells.

[1] = system: HeLa cervical carcinoma cells
Procedure: as §1

HL-60 leukemic cells = system: HL-60 leukemic cells
Procedure: as §1

A375 melanoma cells = system: A375 melanoma cells
Procedure: as §1

[2] = system: Jurkat T-cell leukemia cells
Procedure: as §1

SK-MEL-28 melanoma cells = system: SK-MEL-28 melanoma cells
Procedure: as §1

SMILES | Cell Viability (% of Vehicle) RPMI-7951 (RPMI-7951 melanoma cells) | Cell Viability (% of Vehicle) HeLa [1] | Cell Viability (% of Vehicle) HL-60 (HL-60 leukemic cells) | Cell Viability (% of Vehicle) A375 (A375 melanoma cells) | Cell Viability (% of Vehicle) Jurkat [2] | Cell Viability (% of Vehicle) SK-MEL-28 (SK-MEL-28 melanoma cells)
CCOc1ccc(/C=C2\SC(=O)N(Cc3ccc(C#N)cc3)C2=O)cc1 [Compound 28m, (Z)-4-((5-(4-ethoxybenzylidene)-2,4-dioxothiazolidin-3-yl)methyl)benzonitrile] | 106 ± 8 % of Vehicle | 95 ± 3 % of Vehicle | 86 ± 37 % of Vehicle | 108 ± 3 % of Vehicle | 103 ± 11 % of Vehicle | 97 ± 7 % of Vehicle
CCOc1ccc(/C=C2\SC(=O)N(CCNC(=O)c3ccc(C#N)cc3)C2=O)cc1 [Compound 25d, (Z)-4-cyano-N-(2-(5-(4-ethoxybenzylidene)-2,4-dioxothiazolidin-3-yl)ethyl)benzamide] | 122 ± 10 % of Vehicle | 99 ± 9 % of Vehicle | 101 ± 12 % of Vehicle | 118 ± 3 % of Vehicle | 102 ± 7 % of Vehicle | 103 ± 2 % of Vehicle
CCOc1ccc(/C=C2\SC(=O)N(CCN(Cc3ccccc3)Cc3ccccc3)C2=O)cc1 [Compound 24b, (Z)-3-(2-(dibenzylamino)ethyl)-5-(4-ethoxybenzylidene)thiazolidine-2,4-dione] | 120 ± 3 % of Vehicle | 92 ± 9 % of Vehicle | 109 ± 24 % of Vehicle | 122 ± 7 % of Vehicle | 104 ± 2 % of Vehicle | 104 ± 4 % of Vehicle
CCOc1ccc(/C=C2\SC(=O)N(CCNS(=O)(=O)c3cn(C)cn3)C2=O)cc1 [Compound 27c, (Z)—N-(2-(5-(4-ethoxybenzylidene)-2,4-dioxothiazolidin-3-yl)ethyl)-1-methyl-1H-imidazole-4-sulfonamide] | 118 ± 6 % of Vehicle | 91 ± 5 % of Vehicle | 51 ± 31 % of Vehicle | 107 ± 2 % of Vehicle | 97 ± 4 % of Vehicle | 92 ± 5 % of Vehicle
CCOc1ccc(/C=C2\SC(=O)N(CCNC(=O)OCc3ccccc3)C2=O)cc1 [Compound 26d, (Z)-benzyl (2-(5-(4-ethoxybenzylidene)-2,4-dioxothiazolidin-3-yl)ethyl)carbamate] | 54 ± 6 % of Vehicle | 98 ± 6 % of Vehicle | 85 ± 27 % of Vehicle | 103 ± 3 % of Vehicle | 112 ± 5 % of Vehicle | 97 ± 1 % of Vehicle
CCOc1ccc(CC2SC(=O)N(CCN)C2=O)cc1 (stereo not drawn) [Compound 6, 3-(2-aminoethyl)-5-(4-ethoxybenzyl)thiazolidine-2,4-dione] | 70 ± 5 % of Vehicle | 90 ± 4 % of Vehicle | 41 ± 17 % of Vehicle | 92 ± 6 % of Vehicle | 108 ± 10 % of Vehicle | 88 ± 3 % of Vehicle
CCOc1ccc(/C=C2\SC(=O)N(CCNC(=O)C(F)(F)F)C2=O)cc1 [Compound 25b, (Z)—N-(2-(5-(4-ethoxybenzylidene)-2,4-dioxothiazolidin-3-yl)ethyl)-2,2,2-trifluoroacetamide] | 127 ± 3 % of Vehicle | 98 ± 11 % of Vehicle | 101 ± 23 % of Vehicle | 118 ± 4 % of Vehicle | 103 ± 6 % of Vehicle | 105 ± 2 % of Vehicle
CCOc1ccc(/C=C2\SC(=O)N(Cc3ccc(C(=O)OC(C)(C)C)cc3)C2=O)cc1 [Compound 28p, (Z)-tert-butyl 4-((5-(4-ethoxybenzylidene)-2,4-dioxothiazolidin-3-yl)methyl)benzoate] | 122 ± 1 % of Vehicle | 100 ± 6 % of Vehicle | 98 ± 24 % of Vehicle | 119 ± 1 % of Vehicle | 101 ± 2 % of Vehicle | 105 ± 3 % of Vehicle
CCOc1ccc(/C=C2\SC(=O)N(CCNS(C)(=O)=O)C2=O)cc1 [Compound 27a, (Z)—N-(2-(5-(4-ethoxybenzylidene)-2,4-dioxothiazolidin-3-yl)ethyl)methanesulfonamide] | 68 ± 3 % of Vehicle | 82 ± 1 % of Vehicle | 82 ± 44 % of Vehicle | 94 ± 2 % of Vehicle | 85 ± 3 % of Vehicle | 87 ± 2 % of Vehicle
CCOc1ccc(/C=C2\SC(=O)N(CCN(Cc3ccc(C#N)cc3)Cc3cccc(C#N)c3)C2=O)cc1 [Compound 24c, (Z)-3-(((4-cyanobenzyl)(2-(5-(4-ethoxybenzylidene)-2,4-dioxothiazolidin-3-yl)ethyl)amino)methyl)benzonitrile] | 108 ± 9 % of Vehicle | 97 ± 8 % of Vehicle | 108 ± 16 % of Vehicle | 115 ± 1 % of Vehicle | 100 ± 2 % of Vehicle | 107 ± 3 % of Vehicle
CCOc1ccc(/C=C2\SC(=O)N(C(CN)CN)C2=O)cc1 [Compound 22e, (Z)-3-(1,3-diaminopropan-2-yl)-5-(4-ethoxybenzylidene)thiazolidine-2,4-dione] | 25 ± 3 % of Vehicle | 62 ± 2 % of Vehicle | 11 ± 4 % of Vehicle | 19 ± 4 % of Vehicle | 81 ± 9 % of Vehicle | 32 ± 2 % of Vehicle
CCOc1ccc(/C=C2\SC(=O)N(Cc3ccc(N)cc3)C2=O)cc1 [Compound 28o, (Z)-3-(4-aminobenzyl)-5-(4-ethoxybenzylidene)thiazolidine-2,4-dione] | 102 ± 23 % of Vehicle | 89 ± 9 % of Vehicle | 86 ± 21 % of Vehicle | 119 ± 6 % of Vehicle | 97 ± 7 % of Vehicle | 94 ± 5 % of Vehicle
CCOc1ccc(/C=C2\SC(=O)N(Cc3ccccn3)C2=O)cc1 [Compound 28j, (Z)-5-(4-ethoxybenzylidene)-3-(pyridin-2-ylmethyl)thiazolidine-2,4-dione] | 114 ± 5 % of Vehicle | 89 ± 5 % of Vehicle | 89 ± 31 % of Vehicle | 124 ± 6 % of Vehicle | 101 ± 7 % of Vehicle | 95 ± 3 % of Vehicle
